Assay results reported in US8399465B2, “Compounds with two fused bicyclic heteroaryl moieties as modulators of leukotriene A4 hydrolase” (Janssen Pharmaceutica NV, priority 2009, dated 2013).
Structures can show the parent of a compound that is named as a salt.

Columns and labels:
[1] = target: T1, recombinant human LTA4 hydrolase (rhLTA4H) (Homo sapiens, UniProt P09960); experiment: Recombinant human LTA4 hydrolase assay for LTA4 hydrolase inhibitor activity; format: biochemical; settings: rhLTA4H, LTB4 by immunoassay; single determination or average of two or more; mark after value = form tested: ′ free base, ″ hydrochloride, ^ formate; read-out: IC50
T1 construct: made in house; host or cells: Spodoptera frugiperda (Sf-9) cells, baculovirus (pFastBac1)
T1 sequence (P09960 1-611): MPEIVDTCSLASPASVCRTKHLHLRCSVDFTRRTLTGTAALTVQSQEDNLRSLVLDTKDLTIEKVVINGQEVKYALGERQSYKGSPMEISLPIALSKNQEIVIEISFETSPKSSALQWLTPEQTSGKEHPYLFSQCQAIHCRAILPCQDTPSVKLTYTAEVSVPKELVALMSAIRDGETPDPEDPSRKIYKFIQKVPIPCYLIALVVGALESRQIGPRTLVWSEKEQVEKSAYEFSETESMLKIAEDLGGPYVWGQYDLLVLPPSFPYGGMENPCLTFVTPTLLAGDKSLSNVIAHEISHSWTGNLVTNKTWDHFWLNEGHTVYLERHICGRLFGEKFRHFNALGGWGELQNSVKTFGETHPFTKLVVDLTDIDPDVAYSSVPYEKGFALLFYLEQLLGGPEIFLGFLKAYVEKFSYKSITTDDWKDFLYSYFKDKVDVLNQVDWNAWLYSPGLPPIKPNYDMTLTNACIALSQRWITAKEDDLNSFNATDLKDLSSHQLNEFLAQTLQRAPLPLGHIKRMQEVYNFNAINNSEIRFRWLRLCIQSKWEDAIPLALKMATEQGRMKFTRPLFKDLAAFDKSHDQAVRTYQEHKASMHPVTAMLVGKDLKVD
Method in brief: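 LTB4 formation, measured by enzyme immunoassay, was the read-out. The enzyme, recombinant human LTA4H expressed in Sf-9 insect cells (10 ng per reaction), was exposed to compound for 10 min at room temperature before hydrolysed-ester LTA4 substrate was added for 30 min. Enzyme-free negatives were included.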

[2] = test system: LTB4 production in murine blood (LTA4H); experiment: LTB4 production by calcium ionophore-stimulated murine blood for LTA4H inhibitor activity; format: cell-based, CD-1 mice; settings: Mus musculus; murine blood diluted 1 in 15, A23187 stimulated; single determination or average; mark after value = form tested: ′ free base, ″ hydrochloride, ^ formate; read-out: IC50
Method in brief: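 LTB4 was measured by ELISA in supernatants after calcium ionophore A23187 stimulation (final 7 μg/mL, 30 min, 37° C) of CD-1 mouse blood collected on heparin. Compound was preincubated with the blood for 15 min beforehand. Values come from one determination or average several.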

c1ccc2sc(Oc3ccc4c(CN5C[C@@H]6C[C@H]5CN6)c[nH]c4c3)nc2c1 [Example 52, (1S,4S)-2-[3-(2,5-Diaza-bicyclo[2.2.1]hept-2-ylmethyl)-1H-indol-6-yloxy]-benzothiazole 2HCl]
IC50 [1]: 23 nM | IC50 [2]: 411 nM

CC(=O)NC1CCN(Cc2c[nH]c3cc(Oc4nc5ccccc5s4)ccc23)CC1 [Example 53, N-{1-[6-(Benzothiazol-2-yloxy)-1H-indol-3-ylmethyl]-piperidin-4-yl}-acetamide]
IC50 [1]: 8 nM | IC50 [2]: 204 nM

CC(=O)N1CC2CN(Cc3c[nH]c4cc(Oc5nc6ccccc6s5)ccc34)CC2C1 (stereo not shown) [Example 54, 1-{5-[6-(Benzothiazol-2-yloxy)-1H-indol-3-ylmethyl]-hexahydro-pyrrolo[3,4-c]pyrrol-2-yl}-ethanone]
IC50 [1]: 4 nM | IC50 [2]: 165 nM

CC(=O)N1C[C@@H]2C[C@H]1CN2Cc1c[nH]c2cc(Oc3nc4ccccc4s3)ccc12 [Example 55, (1S,4S)-1-{5-[6-(Benzothiazol-2-yloxy)-1H-indol-3-ylmethyl]-2,5-diaza-bicyclo[2.2.1]hept-2-yl}-ethanone]
IC50 [1]: 3 nM | IC50 [2]: 129 nM

Cc1ccnc2nc(Oc3ccc4c(CN5CCOCC5)c[nH]c4c3)sc12 [Example 57, 7-Methyl-2-(3-morpholin-4-ylmethyl-1H-indol-6-yloxy)-thiazolo[4,5-b]pyridine]
IC50 [1]: 93 nM | IC50 [2]: 444 nM

CCn1c(CN2CCCC2)cc2cc(Oc3nc4ccccc4s3)ccc21 [Example 64, 2-(1-Ethyl-2-pyrrolidin-1-ylmethyl-1H-indol-5-yloxy)-benzothiazole]
IC50 [1]: 93 nM | IC50 [2]: 2430 nM

c1ccc2sc(Oc3ccc4[nH]c(CN5CCCCC5)cc4c3)nc2c1 [Example 65, 2-(2-Piperidin-1-ylmethyl-1H-indol-5-yloxy)-benzothiazole]
IC50 [1]: 100 nM | IC50 [2]: 1110 nM

c1ccc2sc(Oc3ccc4[nH]c(CN5CCCC5)cc4c3)nc2c1 [Example 66, 2-(2-Pyrrolidin-1-ylmethyl-1H-indol-5-yloxy)-benzothiazole]
IC50 [1]: 30 nM | IC50 [2]: 1130 nM

c1ccc2sc(Oc3ccc4cc(CN5CCCCC5)[nH]c4c3)nc2c1 [Example 67, 2-(2-Piperidin-1-ylmethyl-1H-indol-6-yloxy)-benzothiazole]
IC50 [1]: 34 nM | IC50 [2]: 295 nM

c1ccc2sc(Oc3ccc4cc(CN5CCCC5)[nH]c4c3)nc2c1 [Example 68, 2-(2-Pyrrolidin-1-ylmethyl-1H-indol-6-yloxy)-benzothiazole]
IC50 [1]: 20 nM | IC50 [2]: 450 nM

NC(=O)C1CCN(Cc2cc3ccc(Oc4nc5ccccc5s4)cc3[nH]2)CC1 [Example 69, 1-[6-(Benzothiazol-2-yloxy)-1H-indol-2-ylmethyl]-piperidine-4-carboxylic acid amide]
IC50 [1]: 47 nM | IC50 [2]: 1220 nM

CC(=O)N[C@H]1C[C@H]2CC[C@@H](C1)N2Cc1cc2ccc(Oc3nc4ccccc4s3)cc2[nH]1 [Example 70, meso-endo-N-{8-[6-(Benzothiazol-2-yloxy)-1H-indol-2-ylmethyl]-8-aza-bicyclo[3.2.1]oct-3-yl}-acetamide]
IC50 [1]: 1 nM | IC50 [2]: 76 nM

c1cnc2nc(Oc3ccc4cc(CN5CCCCC5)[nH]c4c3)sc2c1 [Example 71, 2-(2-Piperidin-1-ylmethyl-1H-indol-6-yloxy)-thiazolo[4,5-b]pyridine]
IC50 [1]: 17 nM | IC50 [2]: 87 nM

CC(=O)N[C@H]1C[C@H]2CC[C@@H](C1)N2Cc1cc2ccc(Oc3nc4ncccc4s3)cc2[nH]1 [Example 72, meso-endo-N-{8-[6-(Thiazolo[4,5-b]pyridin-2-yloxy)-1H-indol-2-ylmethyl]-8-aza-bicyclo[3.2.1]oct-3-yl}-acetamide]
IC50 [1]: 27 nM | IC50 [2]: 100 nM

O=C(O)C1CCN(CCc2coc3cc(Oc4nc5ccccc5s4)ccc23)CC1 [Example 80, 1-{2-[6-(Benzothiazol-2-yloxy)-benzofuran-3-yl]-ethyl}-piperidine-4-carboxylic acid]
IC50 [1]: 48 nM | IC50 [2]: 350 nM

O=C(O)CN[C@H]1C[C@H]2CC[C@@H](C1)N2Cc1cc2ccc(Oc3nc4ccccc4s3)cc2o1 [Example 81, meso-endo-{8-[6-(Benzothiazol-2-yloxy)-benzofuran-2-ylmethyl]-8-aza-bicyclo[3.2.1]oct-3-ylamino}-acetic acid]
IC50 [1]: 29 nM | IC50 [2]: 450 nM

CC(=O)N[C@H]1C[C@H]2CC[C@@H](C1)N2Cc1cc2cc(Oc3nc4ccccc4s3)ccc2o1 [Example 83, meso-endo-N-{8-[5-(Benzothiazol-2-yloxy)-benzofuran-2-ylmethyl]-8-aza-bicyclo[3.2.1]oct-3-yl}-acetamide formate]
IC50 [1]: 70 nM | IC50 [2]: 119 nM

CC(=O)N[C@H]1C[C@H]2CC[C@@H](C1)N2Cc1cc2cc(Oc3nc4c(F)cccc4s3)ccc2o1 [Example 85, meso-endo-N-{8-[5-(4-Fluoro-benzothiazol-2-yloxy)-benzofuran-2-ylmethyl]-8-aza-bicyclo[3.2.1]oct-3-yl}-acetamide]
IC50 [1]: 17 nM | IC50 [2]: 210 nM

c1cnc2nc(Oc3ccc4oc(CN5CCCCC5)cc4c3)sc2c1 [Example 86, 2-(2-Piperidin-1-ylmethyl-benzofuran-5-yloxy)-thiazolo[4,5-b]pyridine]
IC50 [1]: 68 nM | IC50 [2]: 85 nM

CC(=O)N[C@H]1C[C@H]2CC[C@@H](C1)N2Cc1cc2cc(Oc3nc4ncccc4s3)ccc2o1 [Example 87, meso-endo-N-{8-[5-(Thiazolo[4,5-b]pyridin-2-yloxy)-benzofuran-2-ylmethyl]-8-aza-bicyclo[3.2.1]oct-3-yl}-acetamide]
IC50 [1]: 35 nM | IC50 [2]: 77 nM

NC(=O)C1CCN(Cc2cc3cc(Oc4nc5ncccc5s4)ccc3o2)CC1 [Example 88, 1-[5-(Thiazolo[4,5-b]pyridin-2-yloxy)-benzofuran-2-ylmethyl]-piperidine-4-carboxylic acid amide]
IC50 [1]: 11 nM | IC50 [2]: 320 nM

NC(=O)N1CC2CN(Cc3cc4cc(Oc5nc6ncccc6s5)ccc4o3)CC2C1 (stereo not shown) [Example 91, 5-[5-(Thiazolo[4,5-b]pyridin-2-yloxy)-benzofuran-2-ylmethyl]-hexahydro-pyrrolo[3,4-c]pyrrole-2-carboxylic acid amide]
IC50 [1]: 88 nM | IC50 [2]: 97 nM

CS(=O)(=O)C1CCN(Cc2cc3cc(Oc4nc5ncccc5s4)ccc3o2)CC1 [Example 92, 2-[2-(4-Methanesulfonyl-piperidin-1-ylmethyl)-benzofuran-5-yloxy]-thiazolo[4,5-b]pyridine]
IC50 [1]: 51 nM | IC50 [2]: 400 nM

NC(=O)N1C[C@H]2CC[C@@H](C1)N2Cc1cc2cc(Oc3nc4ncccc4s3)ccc2o1 [Example 94, meso-8-[5-(Thiazolo[4,5-b]pyridin-2-yloxy)-benzofuran-2-ylmethyl]-3,8-diaza-bicyclo[3.2.1]octane-3-carboxylic acid amide]
IC50 [1]: 102 nM | IC50 [2]: 202 nM

CC(=O)N1C[C@H]2C[C@@H]1CN2Cc1cc2cc(Oc3nc4ncccc4s3)ccc2o1 [Example 102, (1R,4R)-1-{5-[5-(Thiazolo[4,5-b]pyridin-2-yloxy)-benzofuran-2-ylmethyl]-2,5-diaza-bicyclo[2.2.1]hept-2-yl}-ethanone]
IC50 [1]: 12 nM | IC50 [2]: 293 nM

NC(=O)C1CCN(Cc2cc3cc(Oc4nc5ccccc5s4)ccc3o2)CC1 [Example 105, 1-[5-(Benzothiazol-2-yloxy)-benzofuran-2-ylmethyl]-piperidine-4-carboxylic acid amide]
IC50 [1]: 97 nM | IC50 [2]: 488 nM

CN(Cc1ccccc1)Cc1cc2cc(Oc3nc4ncccc4s3)ccc2o1 [Example 114, Benzyl-methyl-[5-(thiazolo[4,5-b]pyridin-2-yloxy)-benzofuran-2-ylmethyl]-amine]
IC50 [1]: 15 nM | IC50 [2]: 85 nM

CC(=O)N[C@H]1C[C@H]2CC[C@@H](C1)N2CCc1coc2cc(Oc3nc4ccccc4s3)ccc12 [Example 129, meso-endo-N-(8-{2-[6-(Benzothiazol-2-yloxy)-benzofuran-3-yl]-ethyl}-8-aza-bicyclo[3.2.1]oct-3-yl)-acetamide]
IC50 [1]: 13 nM | IC50 [2]: 180 nM

CC(=O)N[C@H]1C[C@H]2CC[C@@H](C1)N2Cc1cc2ccc(Oc3nc4ccccc4s3)cc2s1 [Example 134, meso-endo-N-{8-[6-(Benzothiazol-2-yloxy)-benzo[b]thiophen-2-ylmethyl]-8-aza-bicyclo[3.2.1]oct-3-yl}-acetamide]
IC50 [1]: 43 nM | IC50 [2]: 740 nM
